Results taken from patent publication US20150368248A1, “2-SUBSTITUTED-6-BIARYLMETHYLAMINO-9-CYCLOPENTYL-9H-PURINE DERIVATIVES, USE THEREOF AS MEDICAMENTS, AND PHARMACEUTICAL COMPOSITIONS” (UNIVERZITA PALACKEHO V OLOMOUCI, priority 2013, published 2015).
Read-outs that look alike come from different tables or passages of the source.

Tests used:
HepG2 = assay: MTT cytotoxicity assay (Example 30); assay type: cell-based; conditions: Homo sapiens, HepG2, 72 h; MTT, three days after drug addition; read-out: Inhibitory concentration IC50, HepG2
Excerpt: Cytotoxicity of the compounds is the major property determining their anticancer effect in vivo. One of the parameters used, as the basis for cytotoxicity assays, is the metabolic activity of viable cells. For example, a microtiter assay, which uses (3-(4,5-Dimethylthiazol-2-yl)-2,5-diphenyltetrazolium bromide (MTT), is widely used to quantitate cell proliferation and cytotoxicity. For instance, this assay is used in drug screening programs and in chemosensitivity testing. Because only metabolically active living cells reduce MTT to correspond purple formazan dye, these assays detect viable cells exclusively. The quantity of reduced MTT corresponds to the number of vital cells in the culture.
We have been using the following cell lines: HUH-7 and PLC/PRF/5 cell lines were maintained in DMEM supplemented with 10% fetal bovine serum, penicillin (100 U/ml) and streptomycin (100 μg/ml). Unique HCC-1.2 (3p) and HCC-1.1 (3sp) cell lines (Zilj et al., 2009, Future Oncol, 5(8):1169-79) and Hep3B cells were cultivated in RPMI supplemented with 10% fetal bovine serum, penicillin (100 U/ml) and streptomycin (100 μg/ml). HepG2 cell line was maintained in EMEM supplemented with 10% fetal bovine serum, sodium pyruvate (0.11 g/1), penicillin (100 U/ml) and streptomycin (100 μg/ml). All cell lines were cultivated at 37° C. in 5% CO2. For cytotoxicity assays, 3000 cells (10000 cells in case of HepG2 cell line) were seeded into each well of 96 well plate and the next day tested compounds were added at various concentrations in triplicates. Three days after drug addition MTT stock solution (5 mg/ml) was added into each well and incubated for 4 h. After this incubation period, produced formazan was dissolved by DMSO and final absorbance was measured at 570 nm with Synergy H4 Hybrid Multi-Mode Microplate Reader.

CDK1/cyclin B = target: T1, CDK1/cyclin B (Homo sapiens, UniProt P06493); assay: Kinase inhibition assay, recombinant kinase, [γ-33P]ATP; assay type: biochemical
T1 construct: made in house; host or cells: Sf9 insect cells (baculovirus)
Protocol: CDK2/Cyclin E kinase was produced in Sf9 insect cells via baculoviral infection and purified on a NiNTA column (Qiagen). CDK5/p35, CDK7Cyclin H/MAT1 and CDK9/Cyclin T1 was purchased from ProQinase GmbH. […] The reactions were stopped by adding 5 μL of 3% aq H3PO4. Aliquots were spotted onto P-81 phosphocellulose (Whatman), washed 3× with 0.5% aq H3PO4 and finally air-dried.
CDK1/cyclin B and CDK2/cyclin E kinases were produced in Sf9 insect cells via baculoviral infection, while CDK5/p35, CDK7/cyclin H/MAT1, and CDK9/cyclin T1 were purchased from ProQinase (Freiburg, Germany) and assayed as described previously (35). The kinase reactions were assayed with 1 mg/ml histone H1 (for CDK2 and CDK5) or (YSPTSPS)2KK peptide (for CDK7 and CDK9) in the presence of 15/0.15/1.5/1.5 […] ATP (for CDK2/CDK5/CDK7CDK9), […] [γ-^33P]ATP and of the test compound in a final volume of […]. The reaction buffer contained 60 mM HEPES-NaOH, pH 7.5, 3 mM MgCl2, 3 mM MnCl2, 3 mM Na-orthovanadate, 1.2 mM DTT, 2.5 mg/50 ml PEG20.000. The reactions were stopped by adding […] of 3% H3PO4. Aliquots were spotted onto P-81 phosphocellulose (Whatman, GE Healthcare Biosciences, Pittsburgh, USA), washed 3 times with 0.5% H3PO4 and finally air-dried. Kinase inhibition was quantified using a FLA-7000 digital image analyzer (Fujifilm, Tokyo, Japan).

[1] = tested on: caspase-3/7 activity in Hep3B cell line; assay: One-step cellular caspase-3/7 activity assay; assay type: cell-based, human; conditions: 24 hours, 0 nM = 1.00
Protocol: (§1) Measurements of proapoptotic properties of new compounds were based on quantification of enzymatic activities of caspases, concretely caspases-3/7. Activity of cellular caspase-3/7 was measured according to Carrasco et al., 2003, BioTechniques, 34(5): 1064-67. Briefly, Hep3B and PLC/PRF/5 cells were incubated in the densities of 10000 cells/well in a 96-well plate overnight. Next day, the compounds in appropriate concentrations were added and cells were incubated for the 24 hours. After incubation, 3× caspase-3/7 assay buffer (150 mM HEPES pH 7.4, 450 mM NaCl, 150 mM KCl, 30 mM MgCl2, 1.2 mM EGTA, 1.5% Nonidet P40, 0.3% CHAPS, 30% sucrose, 30 mM DTT, 3 mM PMSF) with 150 μM Ac-DEVD-AMC as a substrate (Sigma-Aldrich) was added to the wells and plates were incubated at […]. The caspase-3/7 activity was measured after 6 hours using Fluoroskan Ascent microplate reader (Labsystems) at 346 nm/442 nm (excitation/emission).

[2] = tested on: caspase-3/7 activity in PLC/PRF/5 cell line; assay: One-step cellular caspase-3/7 activity assay; assay type: cell-based, human; conditions: 24 hours incubation, relative to 0 nM = 1.00
Protocol: as §1

[3] = tested on: p53-regulated transcription in Arn8 cells; assay: p53-dependent transcriptional activity, β-galactosidase reporter; assay type: cell-based; conditions: 24 h incubation
Protocol: Stronger anticancer activity of the compounds is enhanced by its positive impact on stability and activity of the tumour suppressor p53. To measure p53-dependent transcriptional activity, β-galactosidase activity was quantified in the melanoma cell line Arn8, which had been established using stable transfection of cells with a p53-responsive reporter construct pRGCAfoslacZ (Frebung et al., Cancer Res., 52, 1992-6976). Briefly, after 24 h incubation with the inhibitors the Arn8 cells were permeabilized with 0.3% Triton X-100 for 15 min and then 4-methylumbelliferon-β-D-galactopyranoside was added as a substrate to the final concentration of 80 μM. After 1 h the fluorescence of product 4-methylumbelliferon was measured at 355/460 nm (ex/em) with a Fluoroskan Ascent microplate reader (Labsystems). Data in Tab. 8 present that series of 2-substituted-6-biarylmethylamino-9-cyclopentyl-9H-purine derivatives show a dose-dependent activatory effect on p53-regulated transcription, with the maximum impact observed between 100 and 500 nM concentrations for most of prepared compounds (Tab. 8).

[4] = read-out: Kinase inhibition IC50, CDK1

T1 sequence (P06493 whole entry, species assumed): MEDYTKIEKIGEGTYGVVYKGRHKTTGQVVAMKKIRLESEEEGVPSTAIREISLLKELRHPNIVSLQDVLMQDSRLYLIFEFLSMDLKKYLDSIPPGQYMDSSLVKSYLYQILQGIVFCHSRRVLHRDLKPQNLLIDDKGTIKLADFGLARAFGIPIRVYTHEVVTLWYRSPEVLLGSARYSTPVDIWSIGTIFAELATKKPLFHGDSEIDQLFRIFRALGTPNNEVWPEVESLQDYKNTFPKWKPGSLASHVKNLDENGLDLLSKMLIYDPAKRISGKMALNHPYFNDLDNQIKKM
T1 sequence (P14635 whole entry partner, species assumed): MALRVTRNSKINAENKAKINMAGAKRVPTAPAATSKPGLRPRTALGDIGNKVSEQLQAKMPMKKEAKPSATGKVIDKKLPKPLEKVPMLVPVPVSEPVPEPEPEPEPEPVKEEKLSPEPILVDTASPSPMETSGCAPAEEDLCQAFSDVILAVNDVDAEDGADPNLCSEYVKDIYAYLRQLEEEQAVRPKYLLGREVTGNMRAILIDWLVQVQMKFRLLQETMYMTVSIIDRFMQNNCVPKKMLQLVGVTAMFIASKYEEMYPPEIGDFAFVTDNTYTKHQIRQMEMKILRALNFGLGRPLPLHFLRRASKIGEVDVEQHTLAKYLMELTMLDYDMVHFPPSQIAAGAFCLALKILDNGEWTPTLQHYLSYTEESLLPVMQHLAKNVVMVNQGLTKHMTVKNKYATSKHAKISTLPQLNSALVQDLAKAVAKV

IC50 (CDK1/cyclin B; [4]) [µM]	melting point [°C]	Compound	IC50 (HepG2) [µM]	Relative caspase-3/7 activity in Hep3B cell line ([1]; 200 nM)	Relative caspase-3/7 activity in Hep3B cell line ([1]; 400 nM)	Relative caspase-3/7 activity in Hep3B cell line ([1]; 800 nM)	Relative caspase-3/7 activity in Hep3B cell line ([1]; 1600 nM)	Relative caspase-3/7 activity in PLC/PRF/5 cell line ([2]; compound concentration 40 nM)	Relative caspase-3/7 activity in PLC/PRF/5 cell line ([2]; compound concentration 80 nM)	Relative caspase-3/7 activity in PLC/PRF/5 cell line ([2]; compound concentration 160 nM)	Relative caspase-3/7 activity in PLC/PRF/5 cell line ([2]; compound concentration 320 nM)	Relative caspase-3/7 activity in PLC/PRF/5 cell line ([2]; compound concentration 640 nM)	Relative caspase-3/7 activity in PLC/PRF/5 cell line ([2]; compound concentration 1280 nM)	Concentration of maximum activation [3] [nM]	IC50 (CDK1/cyclin B; Table 12, read-out: IC50, CDK1/cyklin B) [µM]	Relative caspase-3/7 activity in Hep3B cell line ([1]; 100 nM)
0.119	225 to 226	NC1CCC(Nc2nc(NCc3ccc(-c4cccs4)cc3)c3ncn(C4CCCC4)c3n2)CC1 (centres unmarked) [BP2, N^2-(4-amino-cyclohexyl)-9-cyclopentyl-N^6-(4-thiophen-2-yl-benzyl)-9H-purine-2,6-diamine]	0.444	1.09	1.40	3.73	7.77	1.09	1.14	1.30	2.24	>5.00	>5.00	930	–	–
0.148	157 to 159	NC1CCC(Nc2nc(NCc3ccc(-c4ccco4)cc3)c3ncn(C4CCCC4)c3n2)CC1 (centres unmarked) [BP4, N^2-(4-amino-cyclohexyl)-9-cyclopentyl-N^6-(4-furan-2-yl-benzyl)-9H-purine-2,6-diamine]	0.389	1.12	1.44	5.58	9.25	–	–	0.67	0.61	0.33	0.55	700	–	–
0.183	114 to 118	NC1CCC(Nc2nc(NCc3ccc(-c4ccsc4)cc3)c3ncn(C4CCCC4)c3n2)CC1 (centres unmarked) [BP5, N^2-(4-amino-cyclohexyl)-9-cyclopentyl-N^6-(4-thiophen-3-yl-benzyl)-9H-purine-2,6-diamine]	0.247	1.09	1.48	6.65	8.96	0.65	1.07	2.22	3.37	>5.00	>5.00	961	–	–
0.422	146 to 148	NC1CCC(Nc2nc(NCc3ccc(-c4cccc(F)c4)cc3)c3ncn(C4CCCC4)c3n2)CC1 (centres unmarked) [BP12, N^2-(4-amino-cyclohexyl)-9-cyclopentyl-N^6-(3′-fluoro-biphenyl-4-ylmethyl)-9H-purine-2,6-diamine]	0.248	1.12	4.20	7.04	9.85	0.93	1.27	3.10	2.95	>5.00	>5.00	986	–	–

Compound	IC50 (CDK1/cyclin B; [4]) [µM]	melting point [°C]	IC50 (HepG2) [µM]	Relative caspase-3/7 activity in Hep3B cell line ([1]; 200 nM)	Relative caspase-3/7 activity in Hep3B cell line ([1]; 400 nM)	Relative caspase-3/7 activity in Hep3B cell line ([1]; 800 nM)	Relative caspase-3/7 activity in Hep3B cell line ([1]; 1600 nM)	Relative caspase-3/7 activity in PLC/PRF/5 cell line ([2]; compound concentration 40 nM)	Relative caspase-3/7 activity in PLC/PRF/5 cell line ([2]; compound concentration 80 nM)	Relative caspase-3/7 activity in PLC/PRF/5 cell line ([2]; compound concentration 160 nM)	Relative caspase-3/7 activity in PLC/PRF/5 cell line ([2]; compound concentration 320 nM)	Relative caspase-3/7 activity in PLC/PRF/5 cell line ([2]; compound concentration 640 nM)	Relative caspase-3/7 activity in PLC/PRF/5 cell line ([2]; compound concentration 1280 nM)	Concentration of maximum activation [3] [nM]	IC50 (CDK1/cyclin B; Table 12, read-out: IC50, CDK1/cyklin B) [µM]	Relative caspase-3/7 activity in Hep3B cell line ([1]; 100 nM)
NC1CCC(Nc2nc(NCc3ccc(-c4ccoc4)cc3)c3ncn(C4CCCC4)c3n2)CC1 (centres unmarked) [BP13, N^2-(4-amino-cyclohexyl)-9-cyclopentyl-N^6-(4-furan-3-yl-benzyl)-9H-purine-2,6-diamine]	0.202	154 to 156	0.256	0.95	1.71	5.65	7.81	0.99	1.37	1.72	2.28	>5.00	>5.00	970	–	–
NC1CCC(Nc2nc(NCc3ccc(-c4ccco4)nc3)c3ncn(C4CCCC4)c3n2)CC1 (centres unmarked) [BP14, N^2-(4-amino-cyclohexyl)-9-cyclopentyl-N^6-(6-furan-2-yl-pyridin-3-ylmethyl)-9H-purine-2,6-diamine]	0.05	–	0.211	3.60	6.55	9.00	9.50	1.99	2.86	>5.00	>5.00	>5.00	>5.00	137	0.05	0.99
